“Also recorded” adds a separate entry of the source.
Biological target: SARS-CoV 3CL protease (Severe acute respiratory syndrome coronavirus, UniProt P0C6X7)
Assay: biochemical
Assay type: biochemical

SMILES	potency relative to hexachlorophene (times less potent)	IC50 [µM]	apparent Vmax in presence of inhibitor [µmol/min/mg]	dependence of inhibitory effect on preincubation time	inhibition mechanism / binding mode
Oc1cc(Cl)ccc1Oc1ccc(Cl)cc1Cl [triclosan]	about 10 times	–	–	–	–
Oc1c(Cl)cc(Cl)c(Cl)c1Cc1c(O)c(Cl)cc(Cl)c1Cl [hexachlorophene]	–	5	6.98 ± 0.16	dependent on preincubation time; also recorded: slowly binding inhibitor	classic competitive inhibitor
Cc1c(O)cccc1C(=O)N[C@@H](CSc1ccccc1)[C@H](O)CN1C[C@H]2CCCC[C@H]2C[C@H]1C(=O)NC(C)(C)C [nelfinavir]	about 10 times	46	–	–	–

From PMC7092914 (Biochemical and Biophysical Research Communications, 2005)
